Assay results published in patent US11357779B2 (G1 Therapeutics, Inc., priority 2018, dated 2022).
Entries after “also recorded” stand apart in the source; their conditions may differ.

What was measured:
[1] = Crystallization and slurry experiments, morphic forms of Compound II (XRPD, characterization); assay type: physicochemical; details: morphic forms (XRPD patterns) of Compound II
Procedure: Eleven unique XRPD patterns (Form A-Form K) of Compound II were obtained from crystallization and slurry experiments using various solvents.
Forms A, B, and D were evaluated as solid state forms.

[2] = Stability study under thermal stress, 60° C. for 7 days; assay type: physicochemical
Procedure: Forms A, B, and D were stored in an oven maintained at 60° C. for 7 days.

[3] = Dynamic vapor sorption (moisture sorption) experiment; details: for % wt change at 60% RH / % wt change at 90% RH: DVS; for stability in the moisture sorption experiment (XRPD of dried sample): after DVS; for stability in the moisture sorption experiment (XRPD of dried sample) / XRPD (post DVS): dried at 60° C. and 0% RH; for XRPD (post DVS): after moisture sorption experiment
Procedure: Dynamic vapor sorption experiments were performed on Form A, Form B, and Form D. Table 103 provides the results of the DVS experiment.

[4] = Solubility estimate by aliquot addition with visual observation; assay type: physicochemical
Procedure: Solubility estimates of impure Form B were attempted in various predominantly HCl acidic aqueous acetone solvent mixtures using an aliquot addition method that involved visual observation. Aliquots of various solvents or diluent/organic solvent mixtures were added to measured amounts of impure Form B with agitation (typically sonication) at ambient temperature until complete dissolution was achieved, as judged by visual observation. Solubilities were calculated based on the total solvent used to give a solution; actual solubilities may be greater because of the volume of solvent portions utilized or a slow rate of dissolution. […] If dissolution occurred at the first aliquot, the value was reported as “>”. Due to the haziness of the obtained samples, effective solubility estimates were difficult to discern.

[5] = Vacuum drying experiments of Form B; assay type: physicochemical; details: for Weight Loss (calculated by weight before and after drying): Vacuum oven; for XRPD Result: after Vacuum oven
From the text: Weighted amounts of impure Form B and pure Form B samples from the previous experiments (Samples 14, 8, 11, 19, 21, and 23) were vacuum dried at ambient or elevated temperatures using various vacuum levels from approximately 14 in Hg up 27-28 in Hg. The resulting materials were weighted out prior to submission for XRPD analysis.
The XRPD pattern of the resulting material was consistent with Form B, however, tiny shifting in a few peak positions in the XRPD pattern was observed (FIG. 26).

[6] = Vacuum drying experiments of Form B; assay type: physicochemical; details: for Weight Loss (calculated by weight before and after drying): Vacuum oven
[7] = TG and TG-IR analysis of Form B; assay type: physicochemical; details: TG-IR
Procedure: The TG analyses were performed using a TA Instrument Q5000 thermogravimetric analyzer. Temperature calibration was performed using nickel and Alumel. The sample was placed in a platinum pan and inserted into the TG furnace. The furnace was heated under a nitrogen purge to 350° C. at a rate of 10° C./min.
Thermogravimetric infrared (TG-IR) analysis was performed on a TA Instruments Q5000 IR thermogravimetric (TG) analyzer interfaced to a Magna-IR 560@ Fourier transform infrared (FT-IR) spectrophotometer (Thermo Nicolet) equipped with an Ever-Glo mid/far IR source, a potassium bromide (KBr) beamsplitter, and a mercury cadmium telluride (MCT-A) detector. The FT-IR wavelength verification was performed using polystyrene, and the TG calibration standards were nickel and Alumel™. The sample was placed in a platinum sample pan and the pan was inserted into the TG furnace. The TG instrument was started first, immediately followed by the FT-IR instrument. The TG instrument was operated under a flow of helium at 90 and 10 cc/minute for the purge and balance, respectively. The furnace was heated under helium at a rate of 20° C./minute to a final temperature of approximately 140° C. IR spectra were collected approximately every 32 seconds for approximately 7.5 minutes. Each IR spectrum represents 32 co-added scans collected at a spectral resolution of 4 cm-1. Volatiles were identified from a search of the High Resolution Nicolet Vapor Phase spectral library.
A TG-IR experiment was carried out on pure Form B (Sample 11 from the small-scale slurry experiments) at […] in an effort to investigate the stability of Form B at elevated temperature by monitoring potential release of hydrogen chloride.

[8] = 0.1M HCl:acetone 20:80, ambient
[9] = 0.5M HCl:acetone 10:90, ambient
[10] = 0.5M HCl:acetone 20:80, ambient
[11] = 1.0M HCl:acetone 75:25, ambient

CC(C)N1CCN(c2ccc(Nc3ncc4cc5n(c4n3)C3(CCCCC3)CNC5=O)nc2)CC1.Cl.Cl [A]
Possible Form [1]: Hydrate

CC(C)N1CCN(c2ccc(Nc3ncc4cc5n(c4n3)C3(CCCCC3)CNC5=O)nc2)CC1.Cl.Cl [E]
Possible Form [1]: Acetone

CC(C)N1CCN(c2ccc(Nc3ncc4cc5n(c4n3)C3(CCCCC3)CNC5=O)nc2)CC1.Cl.Cl [B]
Possible Form [1]: Hydrate

CC(C)N1CCN(c2ccc(Nc3ncc4cc5n(c4n3)C3(CCCCC3)CNC5=O)nc2)CC1.Cl.Cl [Form C]
XRPD pattern after thermal stress [2]: remained unchanged

CC(C)N1CCN(c2ccc(Nc3ncc4cc5n(c4n3)C3(CCCCC3)CNC5=O)nc2)CC1.Cl.Cl [G]
Possible Form [1]: Anhydrate

CC(C)N1CCN(c2ccc(Nc3ncc4cc5n(c4n3)C3(CCCCC3)CNC5=O)nc2)CC1.Cl.Cl [H]
Possible Form [1]: n-PrOH

CC(C)N1CCN(c2ccc(Nc3ncc4cc5n(c4n3)C3(CCCCC3)CNC5=O)nc2)CC1.Cl.Cl [D]
Possible Form [1]: Hydrate

CC(C)N1CCN(c2ccc(Nc3ncc4cc5n(c4n3)C3(CCCCC3)CNC5=O)nc2)CC1.Cl.Cl [Form A]
moisture adsorbed ([3]; 60% RH): 14.9 wt % | moisture adsorbed ([3]; 90% RH): 15.8 wt % | % wt change at 60% RH ([3]; 60% RH): 14.9 % wt | % wt change at 90% RH ([3]; 90% RH): 15.8 % wt | stability in the moisture sorption experiment (XRPD of dried sample) [3]: unstable; also recorded: not stable | XRPD (post DVS) [3]: Form K | XRPD pattern after thermal stress [2]: A new pattern was found; also recorded: converted to a new Form

CC(C)N1CCN(c2ccc(Nc3ncc4cc5n(c4n3)C3(CCCCC3)CNC5=O)nc2)CC1.Cl.Cl [impure Form B]
Observation [4, 8]: solids remained | Solubility [4, 8]: <1000 µg/mL | Observation [4, 9]: solids remained | Solubility [4, 9]: <1000 µg/mL | Observation [4, 10]: solids remained | Solubility [4, 10]: <1000 µg/mL | Observation ([4]; 1M HCl:acetone 5:95, ambient): solids remained | Solubility ([4]; 1M HCl:acetone 5:95, ambient): <1000 µg/mL | Observation ([4]; 1M HCl:acetone 10:90, ambient): solids remained | Solubility ([4]; 1M HCl:acetone 10:90, ambient): <1000 µg/mL | Observation ([4]; 1M HCl:acetone 20:80, ambient): solids remained | Solubility ([4]; 1M HCl:acetone 20:80, ambient): <1000 µg/mL | Observation ([4]; 1M HCl:acetone 33:67, ambient): hazy solution | Solubility ([4]; 1M HCl:acetone 33:67, ambient): 2000 µg/mL | Observation ([4]; 1M HCl:acetone 50:50, ambient): hazy solution | Solubility ([4]; 1M HCl:acetone 50:50, ambient): 4000 µg/mL | Observation ([4]; 1M HCl:acetone 60:40, ambient): hazy solution | Solubility ([4]; 1M HCl:acetone 60:40, ambient): 4000 µg/mL | Observation ([4]; 1M HCl:acetone 67:33, ambient): hazy solution | Solubility ([4]; 1M HCl:acetone 67:33, ambient): 6000 µg/mL | Observation [4, 11]: hazy solution | Solubility [4, 11]: 7000 µg/mL | Observation ([4]; 2.0M HCl, ambient): hazy solution | Solubility ([4]; 2.0M HCl, ambient): 4000 µg/mL | Observation ([4]; 5.0M HCl, ambient): hazy solution | Solubility ([4]; 5.0M HCl, ambient): 3000 µg/mL | Observation ([4]; 5.0M HCl:water 1:2, ambient): clear solution | Solubility ([4]; 5.0M HCl:water 1:2, ambient): 7000 µg/mL | Solubility ([4]; HCl acidic aqueous acetone solvent mixtures, ambient temperature, visual estimate): 3000 to 7000 µg/mL | Observation ([4]; Water, ambient): solids remained | Solubility ([4]; Water, ambient): <7000 µg/mL | Observation ([4]; Water:acetone 1:2, ambient): hazy solution | Solubility ([4]; Water:acetone 1:2, ambient): 3000 µg/mL | Observation ([4]; Water:acetone 3:1, ambient): solids remained | Solubility ([4]; Water:acetone 3:1, ambient): <3000 µg/mL

CC(C)N1CCN(c2ccc(Nc3ncc4cc5n(c4n3)C3(CCCCC3)CNC5=O)nc2)CC1.Cl.Cl [C]
Possible Form [1]: EtOAc

CC(C)N1CCN(c2ccc(Nc3ncc4cc5n(c4n3)C3(CCCCC3)CNC5=O)nc2)CC1.Cl.Cl [Sample 23]
Weight Loss (calculated by weight before and after drying) ([5]; 22° C., 1.0 h (~27-28 in Hg)): Weight loss: 4.7% | XRPD Result ([5]; 22° C., 1.0 h (~27-28 in Hg)): Most likely Form B

CC(C)N1CCN(c2ccc(Nc3ncc4cc5n(c4n3)C3(CCCCC3)CNC5=O)nc2)CC1.Cl.Cl [Sample 14]
Weight Loss (calculated by weight before and after drying) ([6]; 23° C., 2 h (~29.5 in Hg)): Weight loss: 6.8% | Weight Loss (calculated by weight before and after drying) ([6]; ~40° C., 15 h (~29.5 in Hg)): Weight loss: 7.5%

CC(C)N1CCN(c2ccc(Nc3ncc4cc5n(c4n3)C3(CCCCC3)CNC5=O)nc2)CC1.Cl.Cl [Form D]
moisture adsorbed ([3]; 60% RH): 4.4 wt % | % wt change at 60% RH ([3]; 60% RH): 4.4 % wt | % wt change at 90% RH ([3]; 90% RH): 17.0 % wt | stability in the moisture sorption experiment (XRPD of dried sample) [3]: unstable; also recorded: not stable | XRPD (post DVS) [3]: Form K | XRPD pattern after thermal stress [2]: No change in the XRPD pattern

CC(C)N1CCN(c2ccc(Nc3ncc4cc5n(c4n3)C3(CCCCC3)CNC5=O)nc2)CC1.Cl.Cl [Sample 11]
Weight Loss (calculated by weight before and after drying) ([5]; 22° C., 0.5 h (~14 in Hg)): Weight loss: 1.8% | XRPD Result ([5]; 22° C., 0.5 h (~14 in Hg)): Form B tiny peak

CC(C)N1CCN(c2ccc(Nc3ncc4cc5n(c4n3)C3(CCCCC3)CNC5=O)nc2)CC1.Cl.Cl [Compound II, Form B]
Weight (%) ([7]; 0.38 min, 36.60 ° C.): 99.93% | Weight (%) ([7]; 0.55 min, 40.20 ° C.): 99.87% | Weight (%) ([7]; 0.73 min, 43.80 ° C.): 99.77% | Weight (%) ([7]; 0.90 min, 47.40 ° C.): 99.63% | Weight (%) ([7]; 1.08 min, 51.00 ° C.): 99.46% | Weight (%) ([7]; 1.25 min, 54.60 ° C.): 99.26% | Weight (%) ([7]; 1.43 min, 58.20 ° C.): 99.03% | Weight (%) ([7]; 1.61 min, 61.80 ° C.): 98.79% | Weight (%) ([7]; 1.78 min, 65.40 ° C.): 98.52% | Weight (%) ([7]; 1.96 min, 69.00 ° C.): 98.22% | Weight (%) ([7]; 2.14 min, 72.60 ° C.): 97.86% | Weight (%) ([7]; 2.32 min, 76.20 ° C.): 97.44% | Weight (%) ([7]; 2.50 min, 79.80 ° C.): 96.95% | Weight (%) ([7]; 2.68 min, 83.40 ° C.): 96.45% | Weight (%) ([7]; 2.86 min, 87.00 ° C.): 95.97% | Weight (%) ([7]; 3.04 min, 90.60 ° C.): 95.57% | Weight (%) ([7]; 3.23 min, 94.20 ° C.): 95.23% | Weight (%) ([7]; 3.41 min, 97.80 ° C.): 94.95% | Weight (%) ([7]; 3.59 min, 101.40 ° C.): 94.71% | Weight (%) ([7]; 3.77 min, 105.00 ° C.): 94.50% | Weight (%) ([7]; 3.95 min, 108.60 ° C.): 94.32% | Weight (%) ([7]; 4.13 min, 112.20 ° C.): 94.18% | Weight (%) ([7]; 4.31 min, 115.80 ° C.): 94.06% | Weight (%) ([7]; 4.68 min, 123.00 ° C.): 93.86% | Weight (%) ([7]; 4.86 min, 126.60 ° C.): 93.78% | Weight (%) ([7]; 5.04 min, 130.20 ° C.): 93.71% | Weight (%) ([7]; 5.22 min, 133.80 ° C.): 93.65%

CC(C)N1CCN(c2ccc(Nc3ncc4cc5n(c4n3)C3(CCCCC3)CNC5=O)nc2)CC1.Cl.Cl [Sample 8]
Weight Loss (calculated by weight before and after drying) ([6]; ~40° C., 15 h (~29.5 in Hg)): Weight loss: 7.4% | XRPD Result ([6]; after Vacuum oven, ~40° C., 15 h (~29.5 in Hg)): New crystalline

CC(C)N1CCN(c2ccc(Nc3ncc4cc5n(c4n3)C3(CCCCC3)CNC5=O)nc2)CC1.Cl.Cl [F]
Possible Form [1]: Unstable

CC(C)N1CCN(c2ccc(Nc3ncc4cc5n(c4n3)C3(CCCCC3)CNC5=O)nc2)CC1.Cl.Cl [Sample 21]
Weight Loss (calculated by weight before and after drying) ([5]; 22° C., 0.5 h (~28 in Hg)): Weight loss: 30.6%

CC(C)N1CCN(c2ccc(Nc3ncc4cc5n(c4n3)C3(CCCCC3)CNC5=O)nc2)CC1.Cl.Cl [Sample 19]
Weight Loss (calculated by weight before and after drying) ([5]; RT, 1.0 h (~27-28 in Hg)): Weight loss: 9.7% | XRPD Result ([5]; RT, 1.0 h (~27-28 in Hg)): Form B + broad
